Drawing on US4383113A, “Agricultural sulfonamides” (E. I. Du Pont de Nemours and Company, priority 1981, dated 1983), this text covers response rating for twelve molecules.

Holding throughout (parameters): key: 0 = no effect, 10 = maximum effect; letter = response symbol
For assay [1], the system named is cocklebur. Description: Test A post-emergence. The format is in vivo, Xanthium spp. The method, boiled down:
(§1)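 Seeds and tubers were treated preemergence in a growth medium with compound in a nonphytotoxic solvent, against untreated controls; emerged plants such as two-leaf barnyardgrass and five-leaf cotton were sprayed postemergence, against solvent-sprayed controls. After sixteen days in a greenhouse, response was rated visually from 0 to 10.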

Assay [2] deals with morningglory. Description: Test A post-emergence. Type of assay: in vivo, Ipomoea spp. The method, boiled down:
as §1

Assay [3] relates to cassia. The assay is described as follows: Test A post-emergence. The format is in vivo, Cassia tora. The method, boiled down:
as §1

For another assay, the system named is wild oats. The assay is described as follows: Test A post-emergence. Type of assay: in vivo, Avena fatua. The method, boiled down:
as §1

The test system of the next assay is barnyardgrass. The assay is described as follows: Test A post-emergence. The format is in vivo, Echinochloa crusgalli. The method, boiled down: as §1
Assay [4] relates to wheat. The assay is described as follows: Test A post-emergence. The format is in vivo. The gist of the method: as §1
A further assay concerns cotton. Description: Test A post-emergence. Type of assay: in vivo. The method, boiled down:
as §1

Assay [5] has as its system rice. The assay is described as follows: Test A post-emergence. The format is in vivo. The method, boiled down:
as §1

In another assay the test system is sorghum. The assay is described as follows: Test A post-emergence. The format is in vivo. The gist of the method:
as §1

Another assay deals with corn. Description: Test A post-emergence. The format is in vivo. The gist of the method: as §1
The next assay has as its system nutsedge. Description: Test A post-emergence. Type of assay: in vivo, Cyperus rotundus. The method, boiled down: as §1
For the next assay, the system named is crabgrass. Description: Test A post-emergence. Type of assay: in vivo, Digitaria spp. The method, boiled down:
as §1

The test system of a further assay is bush bean. Description: Test A post-emergence. Type of assay: in vivo, bush beans.
The test system of assay [6] is soybean. Description: Test A post-emergence. Type of assay: in vivo. The method, boiled down: as §1
Assay [7] has as its system cocklebur. Description: Test A pre-emergence. The format is in vivo, Xanthium spp. To be noted: 0.4 kg/ha. The method, boiled down:
as §1

Assay [8] deals with cassia. The assay is described as follows: Test A pre-emergence. Type of assay: in vivo, Cassia tora. To be noted: 0.4 kg/ha. The method, boiled down: as §1
For assay [9], the system named is soybean. The assay is described as follows: Test A pre-emergence. Particulars: 0.4 kg/ha. Type of assay: in vivo. The gist of the method: as §1
Assay [10] relates to wheat. The assay is described as follows: Test A pre-emergence. Type of assay: in vivo. To be noted: 0.4 kg/ha. The method, boiled down: as §1
Assay [11] concerns rice. Description: Test A pre-emergence. Type of assay: in vivo. Particulars: 0.4 kg/ha. The gist of the method: as §1
Assay [12] has as its system morningglory. The assay is described as follows: Test A pre-emergence. To be noted: 0.4 kg/ha. Type of assay: in vivo, Ipomoea spp. The gist of the method: as §1

As to `CCOC(=O)c1ccccc1S(=O)(=O)NC(=O)Nc1nc(OC)cc(OC)n1` [drawing 442], the response rating worked out at 9C in the assay on cocklebur [1] (0.4 kg/ha); 10C in the assay with morningglory [2] (0.4 kg/ha); 9C with cassia [3] (0.4 kg/ha); 9C with wild oats (0.4 kg/ha); 10C in the assay on barnyardgrass (0.4 kg/ha); 9C with wheat [4] (0.4 kg/ha). The response rating with cotton (0.4 kg/ha), in the assay on rice [5] (0.4 kg/ha), in the assay with sorghum (0.4 kg/ha), in the assay on corn (0.4 kg/ha) and in the assay on nutsedge (0.4 kg/ha) was 9C throughout.
Consider `COc1cc(OC)nc(NC(=O)NS(=O)(=O)c2ccccc2C(=O)OC(C)C)n1` [drawing 436], for which the response rating with cocklebur [1] (0.4 kg/ha) is on record as 10C; in the assay on morningglory [2] (0.4 kg/ha), 10C; in the assay on cassia [3] (0.4 kg/ha) it was 9C; in the assay on wild oats (0.4 kg/ha), 6C; with barnyardgrass (0.4 kg/ha), 9C; in the assay on cotton (0.4 kg/ha), 9C. The response rating in the assay with rice [5] (0.4 kg/ha) is on record as 7C; in the assay on sorghum (0.4 kg/ha), 9C; in the assay on crabgrass (0.4 kg/ha), 6C; with nutsedge (0.4 kg/ha) it was 9C.
As for `COC(=O)c1ccccc1S(=O)(=O)NC(=O)Nc1nc(C)nc(N(C)C)n1` [drawing 472], the response rating in the assay with cocklebur [1] (0.4 kg/ha) turned out to be 9C; in the assay on morningglory [2] (0.4 kg/ha), 10C; in the assay with cassia [3] (0.4 kg/ha) it was 9C; with wild oats (0.4 kg/ha), 9C; in the assay on barnyardgrass (0.4 kg/ha), 10C; in the assay on bush bean (0.4 kg/ha), 9C. Moreover, the response rating in the assay on soybean [6] (0.4 kg/ha) is reported as 9C; with wheat [4] (0.4 kg/ha) it was 9C; in the assay with cotton (0.4 kg/ha) it was 9C; in the assay on rice [5] (0.4 kg/ha), 10C; in the assay with sorghum (0.4 kg/ha), 10C; in the assay with corn (0.4 kg/ha), 9C. The molecule further displayed a response rating in the assay with nutsedge (0.4 kg/ha) of 8G.
For the molecule `CCCCOC(=O)c1ccccc1S(=O)(=O)NC(=O)Nc1nc(OC)cc(OC)n1` [drawing 439], the response rating in the assay on cocklebur [1] (0.4 kg/ha) came out at 9C; with cocklebur [1] (2 kg/ha) it was 9C; in the assay with morningglory [2] (0.4 kg/ha), 9C; in the assay with morningglory [2] (2 kg/ha) it was 10C; in the assay on cassia [3] (2 kg/ha), 9C; with wild oats (2 kg/ha), 9C. Moreover, the response rating in the assay with barnyardgrass (0.4 kg/ha) came out at 9C; in the assay with barnyardgrass (2 kg/ha), 10C; in the assay with wheat [4] (2 kg/ha), 9C; in the assay on cotton (2 kg/ha), 9C; in the assay on rice [5] (2 kg/ha), 9C; with sorghum (2 kg/ha), 9C. Moreover, the response rating in the assay on corn (2 kg/ha) and in the assay with nutsedge (2 kg/ha) was 9C each time.
Regarding `COC(=O)c1ccccc1S(=O)(=O)NC(=O)Nc1nc(OC)cc(OC)n1` [drawing 414], the response rating is 9C with cocklebur [1] (0.4 kg/ha); 10C with morningglory [2] (0.4 kg/ha); 9C in the assay on cassia [3] (0.4 kg/ha); 9C in the assay on wild oats (0.4 kg/ha); 9C in the assay with barnyardgrass (0.4 kg/ha); 9C with bush bean (0.4 kg/ha). The response rating is on record as 9C in the assay with soybean [6] (0.4 kg/ha); 9C in the assay with wheat [4] (0.4 kg/ha); 9C in the assay with cotton (0.4 kg/ha); 8C in the assay with rice [5] (0.4 kg/ha); 9C in the assay with sorghum (0.4 kg/ha); 9C in the assay with corn (0.4 kg/ha). The molecule also displayed a response rating with nutsedge (0.4 kg/ha) of 10C.
As for `COC(=O)c1ccccc1S(=O)(=O)NC(=O)Nc1nc(C)cc(C)n1` [drawing 412], the response rating in the assay with cocklebur [1] (0.4 kg/ha) came to 10C; with cocklebur [1] (2 kg/ha) it was 9C; with morningglory [2] (0.4 kg/ha) it was 10C; in the assay with morningglory [2] (2 kg/ha), 10C; with cassia [3] (0.4 kg/ha) it was 9C; in the assay on cassia [3] (2 kg/ha), 9C. Besides, the response rating with wild oats (0.4 kg/ha) came to 9C; with wild oats (2 kg/ha) it was 9C; with barnyardgrass (0.4 kg/ha), 10C; with barnyardgrass (2 kg/ha), 10C; with bush bean (0.4 kg/ha) it was 9C; in the assay with bush bean (2 kg/ha), 9C. For the same molecule, the response rating is on record as 9C in the assay on soybean [6] (0.4 kg/ha); 6C in the assay with soybean [6] (2 kg/ha); 9C with wheat [4] (0.4 kg/ha); 9C in the assay on wheat [4] (2 kg/ha); 9C in the assay on cotton (0.4 kg/ha); 9C in the assay on cotton (2 kg/ha). Moreover, the response rating was found to be 10C with rice [5] (0.4 kg/ha); 10C in the assay with rice [5] (2 kg/ha); 9C in the assay with sorghum (0.4 kg/ha); 10C with sorghum (2 kg/ha); 9C in the assay on corn (0.4 kg/ha); 9C in the assay on corn (2 kg/ha). The response rating in the assay on crabgrass (0.4 kg/ha), in the assay with crabgrass (2 kg/ha), with nutsedge (0.4 kg/ha) and in the assay with nutsedge (2 kg/ha) was 9C throughout.
Consider `COc1cc(C)nc(NC(=O)NS(=O)(=O)c2ccccc2C(=O)OCCOCCOCCCl)n1` [drawing 448], for which the response rating in the assay with cocklebur [1] (0.4 kg/ha) was determined as 9C; with morningglory [2] (0.4 kg/ha), 10C; with cassia [3] (0.4 kg/ha), 9C; in the assay on wild oats (0.4 kg/ha), 9C; with barnyardgrass (0.4 kg/ha) it was 10C; with bush bean (0.4 kg/ha), 9C. Besides, the response rating in the assay on soybean [6] (0.4 kg/ha) came to 8C; with wheat [4] (0.4 kg/ha), 9C; in the assay on cotton (0.4 kg/ha), 9C; in the assay on rice [5] (0.4 kg/ha) it was 8C.
Turning to `COC(=O)c1ccccc1S(=O)(=O)NC(=O)Nc1nc(C)nc(OC)n1` [drawing 415], the response rating in the assay with cocklebur [1] (0.4 kg/ha) stood at 9C; in the assay on morningglory [2] (0.4 kg/ha), 10C; in the assay on wild oats (0.4 kg/ha), 10C; in the assay with barnyardgrass (0.4 kg/ha), 10C; in the assay with bush bean (0.4 kg/ha), 9C; in the assay with soybean [6] (0.4 kg/ha) it was 9C. Besides, the response rating is reported as 10C with wheat [4] (0.4 kg/ha); 9C in the assay on cotton (0.4 kg/ha); 10C in the assay with rice [5] (0.4 kg/ha); 10C in the assay with sorghum (0.4 kg/ha); 10C in the assay on corn (0.4 kg/ha); 10C in the assay with crabgrass (0.4 kg/ha). Besides, the response rating with nutsedge (0.4 kg/ha) turned out to be 9C.
Regarding `CCOC(=O)c1ccccc1S(=O)(=O)NC(=O)Nc1nc(OC)cc(OC)n1` [drawing 441], the response rating in the assay on cocklebur [1] (2 kg/ha) is recorded as 9C; with morningglory [2] (2 kg/ha), 10C; in the assay on cassia [3] (2 kg/ha) it was 9C; in the assay on wild oats (2 kg/ha), 9C; with barnyardgrass (2 kg/ha), 10C; in the assay on wheat [4] (2 kg/ha), 9C. Also, the response rating is recorded as 9C in the assay with cotton (2 kg/ha); 9C with rice [5] (2 kg/ha); 10C with sorghum (2 kg/ha); 9C in the assay on corn (2 kg/ha); 9C in the assay on crabgrass (2 kg/ha); 9C with nutsedge (2 kg/ha).
In the case of `COC(=O)c1cc([N+](=O)[O-])ccc1S(=O)(=O)NC(=O)Nc1nc(C)cc(OC)n1` [drawing 529], the response rating came to 9G in the assay with cocklebur [7]; 9G in the assay with cassia [8]; 9H in the assay on soybean [9]; 9G in the assay on wheat [10]; 9H in the assay with rice [11]; 9G in the assay with morningglory [12].
As to `COc1cc(C)nc(NC(=O)NS(=O)(=O)c2ccccc2C(=O)OC(C)C)n1` [drawing 437], the response rating in the assay on cocklebur [1] (0.4 kg/ha) was determined as 10C; in the assay on morningglory [2] (0.4 kg/ha), 9C; in the assay with cassia [3] (0.4 kg/ha) it was 9C; in the assay with barnyardgrass (0.4 kg/ha), 10C; in the assay with cotton (0.4 kg/ha), 10C; in the assay with rice [5] (0.4 kg/ha), 8C. Moreover, the response rating in the assay on sorghum (0.4 kg/ha) amounted to 10C; in the assay with corn (0.4 kg/ha), 9C; with nutsedge (0.4 kg/ha), 9C.
With `COc1cc(C)nc(NC(=O)NS(=O)(=O)c2ccccc2C(=O)SC2CCCCC2)n1` [drawing 476], the response rating with cocklebur [1] (0.4 kg/ha) was determined as 9C; in the assay on morningglory [2] (0.4 kg/ha), 10C; in the assay on cassia [3] (0.4 kg/ha), 9C; in the assay with wild oats (0.4 kg/ha) it was 9C; in the assay with barnyardgrass (0.4 kg/ha), 9C; in the assay on bush bean (0.4 kg/ha) it was 9C. Moreover, the response rating with cotton (0.4 kg/ha) is recorded as 9C; in the assay with rice [5] (0.4 kg/ha), 9C; with sorghum (0.4 kg/ha), 9C; with nutsedge (0.4 kg/ha) it was 10C.
